Data: patent US20250074920A1, “MACROCYCLIC COMPOUNDS AND USE AS KINASE INHIBITORS” (BLOSSOMHILL THERAPEUTICS, INC., priority 2022, published 2025)

How the values were obtained:
Assay in all cases: KINOMEscan kinase binding assay
ALK(C1156Y) = details: at 1 μM
Experimental: (§1) Kinase binding assays were performed at Eurofins/DiscoveRx using the general KINOMEscan Protocol (Fabian, M. A. et al., “A small molecule-kinase interaction map for clinical kinase inhibitors,” Nat. Biotechnol. 2005, 23(3):329-36). For most assays, kinase-tagged T7 phage strains were prepared in an E. coli host derived from the BL21 strain. E. coli were grown to log-phase and infected with T7 phage and incubated with shaking at 32° C. until lysis. The lysates were centrifuged and filtered to remove cell debris. The remaining kinases were produced in HEK-293 cells and subsequently tagged with DNA for qPCR detection. Streptavidin-coated magnetic beads were treated with biotinylated small molecule ligands for 30 minutes at room temperature to generate affinity resins for kinase assays. The liganded beads were blocked with excess biotin and washed with blocking buffer (SeaBlock (Pierce), 1% BSA, 0.05% Tween 20, 1 mM DTT) to remove unbound ligand and to reduce nonspecific binding. Binding reactions were assembled by combining kinases, liganded affinity beads, and test compounds in 1× binding buffer (20% SeaBlock, 0.17×PBS, 0.05% Tween 20, 6 mM DTT). All reactions were performed in polystyrene 96-well plates in a final volume of 0.135 mL. The assay plates were incubated at room temperature with shaking for 1 hour and the affinity beads were washed with wash buffer (1×PBS, 0.05% Tween 20). The beads were then re-suspended in elution buffer (1×PBS, 0.05% Tween 20, 0.5 μM non-biotinylated affinity ligand) and incubated at room temperature with shaking for 30 minutes. The kinase concentration in the eluates was measured by qPCR. Results for compounds tested in this assay at a given concentration are reported as “% Ctrl”, where lower numbers indicate stronger binding in the matrix. % Ctrl was calculated as (test compound signal-positive control signal)/(negative control signal-positive control signal)×100. Dissociation constants (Kds) for test compound-kinase interactions were calculated by measuring the amount of kinase captured on the solid support as a function of the test compound concentration.

FLT3(N841I) = details: at 1 μM
Experimental: as §1

MST1R = details: at 1 μM
Experimental: as §1

[1] = test system: ABL1(T315I)-phosphorylated; details: at 1 μM
Experimental: as §1

FRK = details: at 1 μM
Experimental: as §1

EPHA1 = details: at 1 μM
Experimental: as §1

[2] = test system: ABL1(F317L)-nonphosphorylated; details: at 1 μM
Experimental: as §1

[3] = test system: JAK1(JH2domain-pseudokinase); details: for % Ctrl: JAK1(JH2domain-pseudokinase), at 1 μM; for Kd: read-out: JAK1(JH2 domain-pseudokinase) Kd
Experimental: as §1

MET = details: at 1 μM
Experimental: as §1

FGR = details: at 1 μM
Experimental: as §1

EPHA4 = details: at 1 μM
Experimental: as §1

EPHB6 = details: at 1 μM
Experimental: as §1

FGFR3 = details: at 1 μM
Experimental: as §1

MET(M1250T) = details: at 1 μM
Experimental: as §1

EPHB2 = details: at 1 μM
Experimental: as §1

FLT3(D835Y) = details: at 1 μM
Experimental: as §1

EGFR(G719S) = details: at 1 μM
Experimental: as §1

FGFR1 = details: at 1 μM
Experimental: as §1

AXL = details: at 1 μM
Experimental: as §1

EGFR(L861Q) = details: at 1 μM
Experimental: as §1

[4] = test system: ABL1(H396P)-nonphosphorylated; details: at 1 μM
Experimental: as §1

FER = details: at 1 μM
Experimental: as §1

DDR1 = details: at 1 μM
Experimental: as §1

SRMS = details: at 1 μM
Experimental: as §1

ERBB4 = details: at 1 μM
Experimental: as §1

EGFR(G719C) = details: at 1 μM
Experimental: as §1

FGFR2 = details: at 1 μM
Experimental: as §1

EPHA7 = details: at 1 μM
Experimental: as §1

EGFR(T790M) = details: at 1 μM
Experimental: as §1

[5] = test system: EGFR(L747-E749del, A750P); details: at 1 μM
Experimental: as §1

KIT(V559D, V654A) = details: at 1 μM
Experimental: as §1

EGFR = details: at 1 μM
Experimental: as §1

[6] = test system: TYK2(JH1domain-catalytic); details: for % Ctrl: TYK2(JH1domain-catalytic), at 1 μM; for Kd: read-out: TYK2(JH1 domain-catalytic) Kd
Experimental: as §1

[7] = test system: ABL1(F3171)-phosphorylated; details: at 1 μM
Experimental: as §1

EPHA6 = details: at 1 μM
Experimental: as §1

SRC = details: at 1 μM
Experimental: as §1

TXK = details: at 1 μM
Experimental: as §1

IGF1R = details: at 1 μM
Experimental: as §1

[8] = test system: EGFR(L747-S752del, P753S); details: at 1 μM
Experimental: as §1

ERBB2 = details: at 1 μM
Experimental: as §1

## Cc1cc2c([nH]1)/C=C1\C(=O)Nc3ccc(cc31)-c1c(nn(C)c1C)OCCCN(C)C2=O [Cpd. 1, [3a(4)Z]-6,9,15,16-tetramethyl-9,10,11,12-tetrahydro-15H-1,17-(ethanediylidene)pyrazolo[4,3-n]dipyrrolo[3,2-g:3′,4′-j][1,5]oxazacyclopentadecine-3,8(2H,5H)-dione]
ALK(C1156Y)
  % Ctrl: 100%
FLT3(N841I)
  % Ctrl: 97%
MST1R
  % Ctrl: 100%
[1]
  % Ctrl: 95%
FRK
  % Ctrl: 93%
EPHA1
  % Ctrl: 100%
[2]
  % Ctrl: 83%
[3]
  % Ctrl: 100%
MET
  % Ctrl: 84%
FGR
  % Ctrl: 91%
EPHA4
  % Ctrl: 96%
EPHB6
  % Ctrl: 100%
FGFR3
  % Ctrl: 96%
MET(M1250T)
  % Ctrl: 83%
EPHB2
  % Ctrl: 97%
FLT3(D835Y)
  % Ctrl: 97%
EGFR(G719S)
  % Ctrl: 80%
FGFR1
  % Ctrl: 100%
AXL
  % Ctrl: 85%
EGFR(L861Q)
  % Ctrl: 82%
[4]
  % Ctrl: 87%
FER
  % Ctrl: 97%
DDR1
  % Ctrl: 97%
SRMS
  % Ctrl: 93%
ERBB4
  % Ctrl: 95%
EGFR(G719C)
  % Ctrl: 81%
FGFR2
  % Ctrl: 96%
EPHA7
  % Ctrl: 91%
EGFR(T790M)
  % Ctrl: 88%
[5]
  % Ctrl: 100%
KIT(V559D, V654A)
  % Ctrl: 100%
EGFR
  % Ctrl: 100%
[6]
  % Ctrl: 31%
  Kd: > 10000 nM
[7]
  % Ctrl: 64%
EPHA6
  % Ctrl: 94%
SRC
  % Ctrl: 89%
TXK
  % Ctrl: 100%
IGF1R
  % Ctrl: 100%
[8]
  % Ctrl: 100%
ERBB2
  % Ctrl: 98%

## Cc1cc2c([nH]1)/C=C1\C(=O)Nc3ccc(cc31)-c1c(nn(C)c1C)COCCN(C)C2=O [Cpd. 2, [3a(4)Z]-6,9,15,16-tetramethyl-10,11,13,15-tetrahydro-2H-1,17-(ethanediylidene)pyrazolo[4,3-m]dipyrrolo[3,2-f:3′,4′-i][1,4]oxazacyclopentadecine-3,8(5H,9H)-dione]
ALK(C1156Y)
  % Ctrl: 93%
FLT3(N841I)
  % Ctrl: 24%
MST1R
  % Ctrl: 100%
[1]
  % Ctrl: 5.3%
FRK
  % Ctrl: 98%
EPHA1
  % Ctrl: 100%
[2]
  % Ctrl: 87%
[3]
  % Ctrl: 30%
MET
  % Ctrl: 95%
FGR
  % Ctrl: 100%
EPHA4
  % Ctrl: 100%
EPHB6
  % Ctrl: 93%
FGFR3
  % Ctrl: 88%
MET(M1250T)
  % Ctrl: 98%
EPHB2
  % Ctrl: 97%
FLT3(D835Y)
  % Ctrl: 36%
EGFR(G719S)
  % Ctrl: 77%
FGFR1
  % Ctrl: 100%
AXL
  % Ctrl: 43%
EGFR(L861Q)
  % Ctrl: 62%
[4]
  % Ctrl: 35%
FER
  % Ctrl: 100%
DDR1
  % Ctrl: 100%
SRMS
  % Ctrl: 90%
ERBB4
  % Ctrl: 67%
EGFR(G719C)
  % Ctrl: 80%
FGFR2
  % Ctrl: 85%
EPHA7
  % Ctrl: 89%
EGFR(T790M)
  % Ctrl: 85%
[5]
  % Ctrl: 85%
KIT(V559D, V654A)
  % Ctrl: 92%
EGFR
  % Ctrl: 66%
[6]
  % Ctrl: 100%
  Kd: > 10000 nM
[7]
  % Ctrl: 98%
EPHA6
  % Ctrl: 100%
SRC
  % Ctrl: 100%
TXK
  % Ctrl: 100%
IGF1R
  % Ctrl: 88%
[8]
  % Ctrl: 100%
ERBB2
  % Ctrl: 100%

## Cc1cc2c([nH]1)/C=C1\C(=O)Nc3c(Cl)cc(cc31)-c1cn(C)nc1COC[C@@H](C)NC2=O [Cpd. 3, [3a(4)Z,10R]-20-chloro-6,10,15-trimethyl-10,11,13,15-tetrahydro-2H-1,17-(ethanediylidene)pyrazolo[4,3-m]dipyrrolo[3,2-f:3′,4′-i][1,4]oxazacyclopentadecine-3,8(5H,9H)-dione]
ALK(C1156Y)
  % Ctrl: 89%
FLT3(N841I)
  % Ctrl: 90%
MST1R
  % Ctrl: 98%
[1]
  % Ctrl: 69%
FRK
  % Ctrl: 97%
EPHA1
  % Ctrl: 85%
[2]
  % Ctrl: 95%
[3]
  % Ctrl: 3.1%
  Kd: 120 nM
MET
  % Ctrl: 100%
FGR
  % Ctrl: 98%
EPHA4
  % Ctrl: 92%
EPHB6
  % Ctrl: 86%
FGFR3
  % Ctrl: 89%
MET(M1250T)
  % Ctrl: 100%
EPHB2
  % Ctrl: 99%
FLT3(D835Y)
  % Ctrl: 81%
EGFR(G719S)
  % Ctrl: 100%
FGFR1
  % Ctrl: 80%
AXL
  % Ctrl: 86%
EGFR(L861Q)
  % Ctrl: 98%
[4]
  % Ctrl: 100%
FER
  % Ctrl: 73%
DDR1
  % Ctrl: 98%
SRMS
  % Ctrl: 69%
ERBB4
  % Ctrl: 96%
EGFR(G719C)
  % Ctrl: 100%
FGFR2
  % Ctrl: 90%
EPHA7
  % Ctrl: 100%
EGFR(T790M)
  % Ctrl: 87%
[5]
  % Ctrl: 90%
KIT(V559D, V654A)
  % Ctrl: 100%
EGFR
  % Ctrl: 79%
[6]
  % Ctrl: 71%
  Kd: > 10000 nM
[7]
  % Ctrl: 97%
EPHA6
  % Ctrl: 93%
SRC
  % Ctrl: 100%
TXK
  % Ctrl: 91%
IGF1R
  % Ctrl: 95%
[8]
  % Ctrl: 90%
ERBB2
  % Ctrl: 100%

## C[C@@H]1COCc2nn(C)cc2-c2cc(Cl)c3c(c2)/C(=C/c2[nH]ccc2C(=O)N1)C(=O)N3 [Cpd. 4, [3a(4)Z,10R]-20-chloro-10,15-dimethyl-10,11,13,15-tetrahydro-2H-1,17-(ethanediylidene)pyrazolo[4,3-m]dipyrrolo[3,2-f:3′,4′-i][1,4]oxazacyclopentadecine-3,8(5H,9H)-dione]
ALK(C1156Y)
  % Ctrl: 100%
FLT3(N841I)
  % Ctrl: 78%
MST1R
  % Ctrl: 100%
[1]
  % Ctrl: 35%
FRK
  % Ctrl: 78%
EPHA1
  % Ctrl: 71%
[2]
  % Ctrl: 96%
[3]
  % Ctrl: 0.25%
  Kd: 29 nM
MET
  % Ctrl: 98%
FGR
  % Ctrl: 100%
EPHA4
  % Ctrl: 92%
EPHB6
  % Ctrl: 86%
FGFR3
  % Ctrl: 87%
MET(M1250T)
  % Ctrl: 100%
EPHB2
  % Ctrl: 96%
FLT3(D835Y)
  % Ctrl: 96%
EGFR(G719S)
  % Ctrl: 96%
FGFR1
  % Ctrl: 75%
AXL
  % Ctrl: 67%
EGFR(L861Q)
  % Ctrl: 89%
[4]
  % Ctrl: 82%
FER
  % Ctrl: 68%
DDR1
  % Ctrl: 20%
SRMS
  % Ctrl: 68%
ERBB4
  % Ctrl: 100%
EGFR(G719C)
  % Ctrl: 93%
FGFR2
  % Ctrl: 99%
EPHA7
  % Ctrl: 100%
EGFR(T790M)
  % Ctrl: 90%
[5]
  % Ctrl: 75%
KIT(V559D, V654A)
  % Ctrl: 99%
EGFR
  % Ctrl: 82%
[6]
  % Ctrl: 48%
  Kd: 1500 nM
[7]
  % Ctrl: 98%
EPHA6
  % Ctrl: 97%
SRC
  % Ctrl: 100%
TXK
  % Ctrl: 78%
IGF1R
  % Ctrl: 94%
[8]
  % Ctrl: 90%
ERBB2
  % Ctrl: 100%
